Results as given in US10494602B1, “Functional astrocytes and cortical neurons from induced pluripotent stem cells and methods of use thereof” (The Board of Trustees of the Leland Stanford Junior …, priority 2015, dated 2019).
“Also recorded” adds a separate entry of the source.

Legend:
[1] = molecular target: element-binding protein (CBP) (Homo sapiens, UniProt Q92793); details: cited from earlier work
[2] = tested on: Wnt processing and secretion; details: cell-free assay; read-out: 1050, inhibition of Wnt processing and secretion; cited from earlier work
[3] = tested on: Wnt-stimulated cellular responses; details: cited from earlier work
PORCN [4] = details: read-out: EC50, Porcn inhibition; cited from earlier work
Wnt signaling = details: TM3 cells; read-out: IC50, inhibition of Wnt signaling; cited from earlier work
BMP signaling = details: cited from earlier work
[5] = tested on: voltage-gated Na+ channels; assay type: cell-based, human
TNKS2 = molecular target: T1, TNKS2 (Homo sapiens, UniProt Q9H2K2); details: cited from earlier work
T1 sequence (Q9H2K2 1-1166): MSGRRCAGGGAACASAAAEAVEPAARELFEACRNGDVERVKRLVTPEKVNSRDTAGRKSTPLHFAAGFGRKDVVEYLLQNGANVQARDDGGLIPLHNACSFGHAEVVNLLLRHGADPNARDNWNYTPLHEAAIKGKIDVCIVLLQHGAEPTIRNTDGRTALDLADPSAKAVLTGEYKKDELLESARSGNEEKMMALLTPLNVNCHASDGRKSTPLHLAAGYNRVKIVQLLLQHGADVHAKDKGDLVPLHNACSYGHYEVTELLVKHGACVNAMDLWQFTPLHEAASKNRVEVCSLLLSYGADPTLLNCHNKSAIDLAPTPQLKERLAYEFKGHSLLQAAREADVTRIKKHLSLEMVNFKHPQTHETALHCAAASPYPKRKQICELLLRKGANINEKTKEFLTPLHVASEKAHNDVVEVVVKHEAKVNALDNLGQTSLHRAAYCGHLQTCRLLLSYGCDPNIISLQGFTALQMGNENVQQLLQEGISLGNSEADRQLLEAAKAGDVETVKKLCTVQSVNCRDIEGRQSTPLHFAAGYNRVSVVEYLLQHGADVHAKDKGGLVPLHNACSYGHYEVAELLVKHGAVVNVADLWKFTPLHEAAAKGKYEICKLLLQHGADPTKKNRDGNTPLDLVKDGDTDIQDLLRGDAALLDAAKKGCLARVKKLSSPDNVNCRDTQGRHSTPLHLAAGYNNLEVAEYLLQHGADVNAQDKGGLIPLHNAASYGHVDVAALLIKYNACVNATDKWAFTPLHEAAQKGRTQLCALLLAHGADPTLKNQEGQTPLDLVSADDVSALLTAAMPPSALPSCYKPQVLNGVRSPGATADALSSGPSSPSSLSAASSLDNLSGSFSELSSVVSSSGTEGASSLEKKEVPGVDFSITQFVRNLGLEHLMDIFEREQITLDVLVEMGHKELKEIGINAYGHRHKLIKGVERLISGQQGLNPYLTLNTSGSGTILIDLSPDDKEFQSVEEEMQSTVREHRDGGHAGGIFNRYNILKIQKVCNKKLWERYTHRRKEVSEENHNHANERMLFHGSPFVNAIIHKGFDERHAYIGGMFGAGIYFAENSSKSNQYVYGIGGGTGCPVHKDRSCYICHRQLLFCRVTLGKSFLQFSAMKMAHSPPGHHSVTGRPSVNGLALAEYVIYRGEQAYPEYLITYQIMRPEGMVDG

[6] = tested on: spontaneous synaptic activity (EPSCs) of neurons in hCS slices; assay: Spontaneous EPSCs in acute hCS slice preparation (whole cell recording); assay type: cell-based, human; details: kynurenic acid 1 mM bath application; n=6 cells, P=0.0008
Experimental: hCS were removed from Neurobasal-B27 media, quickly fixed to a block of 4% agarose, and covered in ice-cold oxygenated (95% 02 and 5% CO2) ACSF containing 126 mM NaCl, 2.5 mM KCl, 1.25 mM NaH2PO4, 2 mM MgCl2, 2 mM CaCl2), 26 mM NaHCO3and 10 mM glucose. 250 μm thick slices were cut using a Leica VT1200 vibrating microtome. After slicing, sections were moved to continuously oxygenated warm (˜32° C.) ACSF. Slices were incubated in warm ACSF for at least one hour prior to recording.
Whole cell patch clamp recordings were made at 22-25° C. Slices were superfused at a rate of 3 ml/min. Patch-clamp recordings were made using a MultiClamp 700A amplifier with Clampex 10.3 software. 3-5 MO borosilicate glass recording electrodes were filled with internal solution containing 120 mM potassium gluconate, 11 mM KCl, 1 mM MgCl2, 1 mM CaCl2, 10 mM HEPES, 1 mM EGTA, pH adjusted to 7.4 with KOH (290 mOsm). To determine if EPSCs recorded in voltage clamp are glutamate dependent, the glutamate receptor blocker kynurenic acid (1 mM) was added to the bath solution following at minimum 5 min of baseline recording. Evoked responses were produced by extracellular monopolar tungsten electrode placed 100-300 μm from the whole cell recording. […]

PORCN [7] = details: HEK293 cells; read-out: IC50, Wnt3A-mediated activation of a multimerized TCF-binding site driving luciferase; cited from earlier work

Chain of element-binding protein (CBP) (Q92793 whole entry): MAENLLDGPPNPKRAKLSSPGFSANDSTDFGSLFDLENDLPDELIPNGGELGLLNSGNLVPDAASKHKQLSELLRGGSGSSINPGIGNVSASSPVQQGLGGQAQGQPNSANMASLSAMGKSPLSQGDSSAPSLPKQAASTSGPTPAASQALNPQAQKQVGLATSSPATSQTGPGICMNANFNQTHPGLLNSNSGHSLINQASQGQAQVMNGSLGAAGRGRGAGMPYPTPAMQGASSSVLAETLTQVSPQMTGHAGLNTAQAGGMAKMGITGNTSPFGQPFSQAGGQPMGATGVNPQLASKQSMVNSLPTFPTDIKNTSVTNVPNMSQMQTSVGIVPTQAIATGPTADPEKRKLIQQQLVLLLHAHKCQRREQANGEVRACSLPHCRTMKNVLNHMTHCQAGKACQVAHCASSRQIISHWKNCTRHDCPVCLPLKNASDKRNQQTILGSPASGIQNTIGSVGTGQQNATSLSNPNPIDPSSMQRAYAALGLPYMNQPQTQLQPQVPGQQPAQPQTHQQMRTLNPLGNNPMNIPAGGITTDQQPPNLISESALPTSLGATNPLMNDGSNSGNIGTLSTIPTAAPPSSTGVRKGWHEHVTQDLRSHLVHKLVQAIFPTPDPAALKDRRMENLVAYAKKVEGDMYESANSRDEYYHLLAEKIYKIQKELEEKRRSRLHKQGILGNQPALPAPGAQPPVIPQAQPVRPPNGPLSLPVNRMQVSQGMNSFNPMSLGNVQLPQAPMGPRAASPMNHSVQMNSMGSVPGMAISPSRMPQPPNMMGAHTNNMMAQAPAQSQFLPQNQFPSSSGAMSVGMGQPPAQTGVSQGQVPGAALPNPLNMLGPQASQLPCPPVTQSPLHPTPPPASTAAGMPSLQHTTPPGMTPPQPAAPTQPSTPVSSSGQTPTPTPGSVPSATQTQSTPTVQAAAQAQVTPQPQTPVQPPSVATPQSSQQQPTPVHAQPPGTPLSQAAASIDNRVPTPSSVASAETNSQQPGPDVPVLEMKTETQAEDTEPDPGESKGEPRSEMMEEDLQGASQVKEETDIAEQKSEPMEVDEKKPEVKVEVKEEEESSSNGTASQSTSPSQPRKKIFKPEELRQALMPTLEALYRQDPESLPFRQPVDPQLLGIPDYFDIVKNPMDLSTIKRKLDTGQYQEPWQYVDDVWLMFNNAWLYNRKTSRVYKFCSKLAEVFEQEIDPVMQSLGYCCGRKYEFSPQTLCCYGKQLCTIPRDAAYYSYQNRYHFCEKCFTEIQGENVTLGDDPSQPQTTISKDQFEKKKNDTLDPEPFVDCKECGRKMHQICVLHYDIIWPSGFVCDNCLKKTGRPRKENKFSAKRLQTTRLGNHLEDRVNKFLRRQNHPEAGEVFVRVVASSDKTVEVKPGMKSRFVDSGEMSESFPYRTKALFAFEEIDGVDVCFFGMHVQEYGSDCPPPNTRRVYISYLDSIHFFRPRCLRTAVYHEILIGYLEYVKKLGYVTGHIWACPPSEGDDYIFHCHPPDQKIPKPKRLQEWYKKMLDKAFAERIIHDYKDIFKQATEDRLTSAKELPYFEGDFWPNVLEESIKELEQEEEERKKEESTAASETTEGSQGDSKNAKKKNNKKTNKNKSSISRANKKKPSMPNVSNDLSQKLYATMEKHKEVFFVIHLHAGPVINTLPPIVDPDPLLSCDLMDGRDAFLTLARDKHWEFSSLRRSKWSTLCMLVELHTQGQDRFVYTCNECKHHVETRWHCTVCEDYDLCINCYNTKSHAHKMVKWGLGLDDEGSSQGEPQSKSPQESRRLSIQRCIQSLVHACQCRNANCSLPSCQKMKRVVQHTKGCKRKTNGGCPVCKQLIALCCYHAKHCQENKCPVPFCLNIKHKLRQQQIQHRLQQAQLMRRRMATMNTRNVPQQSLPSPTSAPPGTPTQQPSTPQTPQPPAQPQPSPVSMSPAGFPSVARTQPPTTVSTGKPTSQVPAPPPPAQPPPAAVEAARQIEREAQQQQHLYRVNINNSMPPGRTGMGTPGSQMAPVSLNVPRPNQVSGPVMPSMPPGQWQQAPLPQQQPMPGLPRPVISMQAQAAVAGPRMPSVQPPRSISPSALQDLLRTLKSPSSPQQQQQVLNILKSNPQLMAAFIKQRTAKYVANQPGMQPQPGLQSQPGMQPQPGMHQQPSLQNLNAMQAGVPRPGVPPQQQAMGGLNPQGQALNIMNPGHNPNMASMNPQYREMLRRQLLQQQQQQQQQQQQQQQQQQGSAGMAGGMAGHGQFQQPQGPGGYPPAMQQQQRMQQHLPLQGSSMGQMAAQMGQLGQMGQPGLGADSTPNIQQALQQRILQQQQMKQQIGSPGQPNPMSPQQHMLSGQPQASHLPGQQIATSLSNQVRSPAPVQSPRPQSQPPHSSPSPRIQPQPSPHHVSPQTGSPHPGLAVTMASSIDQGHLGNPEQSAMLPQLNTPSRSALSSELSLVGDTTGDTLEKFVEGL

O=C1[C@H](Cc2ccc(O)cc2)N2C(=O)CCN(C(=O)NCc3ccccc3)[C@H]2CN1Cc1cccc2ccccc12 [ICG-001]
IC50 [1]: 3000 nM

Cc1ccc2nc(NC(=O)CSc3nc4c(c(=O)n3-c3ccccc3)SCC4)sc2c1 [IWP-2]
IC50 [2]: 27 nM
effect against Wnt-stimulated cellular responses [3]: no effect

O=C(CSc1nc2c(c(=O)n1-c1ccccc1)SCC2)Nc1ccc(-c2ccccc2)cn1 [IWP-L6]
EC50 (PORCN [4]): 0.5 nM

Cc1cc(-c2ncc(CC(=O)Nc3ccc(-c4cnccn4)cn3)cc2C)ccn1 [LGK-974]
IC50 (Wnt signaling): 0.4 nM

NC(=O)c1ccc(-c2nc(-c3ccc4c(c3)OCO4)c(-c3ccccn3)[nH]2)cc1 [SB-431542]
effect on BMP signaling (BMP signaling): no effect

NC1=N[C@H](O)[C@H]2[C@H]3O[C@]4(O)O[C@@H]([C@@H](O)[C@@]2(N1)[C@@H]4O)[C@]3(O)CO [TTX, tetrodotoxin]
block of transient inward voltage-gated Na+ current [5]: blocks

COc1ccc(-n2c(SCCCN3C(=O)c4cccc5cccc(c45)C3=O)nnc2-c2ccncc2)cc1 [WIKI4]
IC50 (TNKS2): 15 nM

O=C(O)c1cc(=O)c2ccccc2[nH]1 [kynurenic acid]
spontaneous synaptic activity (EPSCs) in sliced hCS [6]: significantly reduced; also recorded: blocked

Wnt-059 (C59)
IC50 (PORCN [7]): 0.074 nM
